Assay results from patent US20240116985A1, “STAPLED PEPTIDES AND METHODS THEREOF” (priority 2020, published 2024).
≈ marks a conversion by molar mass, not a printed value. Like-named read-outs stand apart in the source and are kept apart here.

How the values were obtained:
CHI Log D procedure = format: physicochemical; conditions: for CHI Log D: pH 7.4; for chromatographic logD: pH 7.4, CHI Log D
[1] = molecular target: T1, full-length beta-Catenin (Uniprot ID P35222) (Homo sapiens, UniProt P35222); test: Fluorescence polarization IC50 (beta-catenin / 5FAM-TCF4 10-53 competition); format: binding
T1 construct: 10 nM full-length beta-Catenin (Uniprot ID P35222)
T1 sequence (P35222 1-781): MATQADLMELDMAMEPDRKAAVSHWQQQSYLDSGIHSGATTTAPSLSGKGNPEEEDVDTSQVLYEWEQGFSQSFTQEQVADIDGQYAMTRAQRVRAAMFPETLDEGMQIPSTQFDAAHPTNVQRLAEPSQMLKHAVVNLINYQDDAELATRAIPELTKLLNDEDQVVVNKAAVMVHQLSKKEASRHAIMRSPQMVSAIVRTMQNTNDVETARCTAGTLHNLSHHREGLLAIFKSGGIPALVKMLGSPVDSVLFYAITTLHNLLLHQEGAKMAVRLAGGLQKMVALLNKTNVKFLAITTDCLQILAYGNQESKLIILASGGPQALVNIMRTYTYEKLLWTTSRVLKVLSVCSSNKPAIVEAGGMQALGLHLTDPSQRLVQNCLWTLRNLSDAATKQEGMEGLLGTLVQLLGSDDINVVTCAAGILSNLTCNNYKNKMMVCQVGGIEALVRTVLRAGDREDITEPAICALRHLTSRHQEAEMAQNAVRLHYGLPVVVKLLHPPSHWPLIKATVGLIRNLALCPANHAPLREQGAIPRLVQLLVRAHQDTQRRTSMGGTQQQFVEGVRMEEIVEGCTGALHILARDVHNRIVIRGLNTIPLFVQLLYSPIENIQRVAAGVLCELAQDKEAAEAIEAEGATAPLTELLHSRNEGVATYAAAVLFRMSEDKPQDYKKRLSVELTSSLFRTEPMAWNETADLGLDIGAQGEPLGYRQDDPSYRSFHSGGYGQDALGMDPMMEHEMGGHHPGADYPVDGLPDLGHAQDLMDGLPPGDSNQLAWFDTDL

Solubility in PBS = format: physicochemical
Procedure, shortened: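 PBS sample ultracentrifuged; supernatant run on HPLC vs. 50 μM peptide in DMSO standard. Solubility = (PBS peak area / DMSO peak area) × 50 uM.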

[2] = fluorescence polarization, read-out: beta-Catenin FP IC50
[3] = read-out: beta-Catenin FP IC50, fluorescence polarization

| IC50 [1, 2] | chromatographic logD (CHI Log D procedure) | Solubility (Solubility in PBS; Solubility (uM)) | SMILES | CHI Log D (CHI Log D procedure) | IC50 ([1]; read-out: FP EC50) | Solubility (Solubility in PBS) | IC50 [1, 3] |
| --- | --- | --- | --- | --- | --- | --- | --- |
| 33 nM |  |  | CC(=O)N1CCC[C@]12CC=CCCCC1(CCCC=CCCCCCC[C@@](C)(C(=O)N[C@@H](Cc3ccccc3)C(=O)N[C@@H](Cc3csc4ccccc34)C(=O)N[C@@H](Cc3c[nH]cn3)C(N)=O)NC(=O)[C@H](CC(N)=O)NC(=O)[C@H](Cc3ccccc3)NC(=O)[C@H](C)NC(=O)[C@H](C)NC(=O)[C@H](CC(=O)O)NC(=O)[C@H](CC(=O)O)NC1=O)NC(=O)[C@H](CCC(C)C)NC(=O)[C@H](CC(=O)O)NC2=O (stereo partly drawn) [I-584, Ac-PL3-Asp-hLeu-B5-Asp-Asp-Ala-Ala-Phe-Asn-S8-Phe-BztA-His-NH2] | 2.635 | 33 nM | 21 µM (≈ 39.4 µg/mL) |  |
| 845 nM | 2.24 | 49 µM (≈ 95.4 µg/mL) | CC[C@H](C)[C@@H]1NC(=O)[C@H](CC(=O)O)NC(=O)[C@]2(CC=CCCCC3(CCCC=CCCCCCC[C@@](C)(C(=O)N[C@@H](Cc4ccccc4)C(=O)N[C@@H](Cc4csc5ccccc45)C(=O)N[C@@H](CCC(N)=O)C(N)=O)NC(=O)[C@H](CCC(N)=O)NC(=O)[C@H](Cc4ccccc4)NC(=O)[C@H](C)NC(=O)[C@H](C)NC(=O)[C@H](CCC(=O)O)NC(=O)[C@H](CC(=O)O)NC3=O)NC1=O)CCCN2C(=O)c1cccnc1 (stereo partly drawn) [I-598, Nic-PL3-Asp-Ile-B5-Asp-Glu-Ala-Ala-Phe-Gln-S8-Phe-BztA-Gln-NH2] |  |  |  |  |
| 138 nM | 2.42 | 45 µM (≈ 87.6 µg/mL) | CC[C@H](C)[C@@H]1NC(=O)[C@H](CC(=O)O)NC(=O)[C@]2(CC=CCCCC3(CCCC=CCCCCCC[C@@](C)(C(=O)N[C@@H](Cc4ccccc4)C(=O)N[C@@H](Cc4csc5ccccc45)C(=O)N[C@@H](CCC(N)=O)C(N)=O)NC(=O)[C@H](CCC(N)=O)NC(=O)[C@H](Cc4ccccc4)NC(=O)[C@H](C)NC(=O)[C@H](C)NC(=O)[C@H](CCC(=O)O)NC(=O)[C@H](CC(=O)O)NC3=O)NC1=O)CCCN2C(=O)c1ccccn1 (stereo partly drawn) [I-599, Pic-PL3-Asp-Ile-B5-Asp-Glu-Ala-Ala-Phe-Gln-S8-Phe-BztA-Gln-NH2] |  |  |  |  |

Continued, molecule first:

| SMILES | IC50 [1, 2] | chromatographic logD (CHI Log D procedure) | Solubility (Solubility in PBS; Solubility (uM)) | CHI Log D (CHI Log D procedure) | IC50 ([1]; read-out: FP EC50) | Solubility (Solubility in PBS) | IC50 [1, 3] |
| --- | --- | --- | --- | --- | --- | --- | --- |
| CC[C@H](C)[C@@H]1NC(=O)[C@H](CC(=O)O)NC(=O)[C@]2(CC=CCCCC3(CCCC=CCCCCCC[C@@](C)(C(=O)N[C@@H](Cc4ccccc4)C(=O)N[C@@H](Cc4csc5ccccc45)C(=O)N[C@@H](Cc4c[nH]cn4)C(N)=O)NC(=O)[C@H](CCC(N)=O)NC(=O)[C@H](Cc4ccccc4)NC(=O)[C@H](C)NC(=O)[C@H](C)NC(=O)[C@H](CC(=O)O)NC(=O)[C@H](CC(=O)O)NC3=O)NC1=O)CCCN2C(C)=O (stereo partly drawn) [I-580, Ac-PL3-Asp-Ile-B5-Asp-Asp-Ala-Ala-Phe-Gln-S8-Phe-BztA-His-NH2] | 114 nM |  |  | 2.436 | 114 nM | 24 µM (≈ 45.1 µg/mL) |  |
| CC[C@H](C)[C@@H]1NC(=O)[C@H](CC(=O)O)NC(=O)[C@]2(CC=CCCCC3(CCCC=CCCCCCC[C@@](C)(C(=O)N[C@@H](Cc4ccccc4)C(=O)N[C@@H](Cc4csc5ccccc45)C(=O)N[C@@H](CCC(N)=O)C(N)=O)NC(=O)[C@H](CCC(N)=O)NC(=O)[C@H](Cc4ccccc4)NC(=O)[C@H](C)NC(=O)[C@H](C)NC(=O)[C@H](CCC(=O)O)NC(=O)[C@H](CC(=O)O)NC3=O)NC1=O)CCCN2C(=O)Cc1ccccc1 (stereo partly drawn) [I-600, Bnc-PL3-Asp-Ile-B5-Asp-Glu-Ala-Ala-Phe-Gln-S8-Phe-BztA-Gln-NH2] |  |  |  | 2.694 | 796 nM | 47 µM (≈ 92.1 µg/mL) | 796 nM |
| CC[C@H](C)[C@@H]1NC(=O)[C@H](CC(=O)O)NC(=O)[C@]2(CC=CCCCC3(CCCC=CCCCCCC[C@@](C)(C(=O)N[C@@H](Cc4ccccc4)C(=O)N[C@@H](Cc4csc5ccccc45)C(=O)N[C@@H](CCC(N)=O)C(N)=O)NC(=O)[C@H](CCC(N)=O)NC(=O)[C@H](Cc4ccccc4)NC(=O)[C@H](C)NC(=O)[C@H](C)NC(=O)[C@H](CCC(=O)O)NC(=O)[C@H](CC(=O)O)NC3=O)NC1=O)CCCN2C(=O)Cc1ccccc1 (stereo partly drawn) [I-601, Bnc-PL3-Asp-Ile-B5-Asp-Glu-Ala-Ala-Phe-Gln-S8-Phe-BztA-Gln-NH2] |  |  |  | 2.748 | 419 nM | 43 µM (≈ 84.2 µg/mL) | 419 nM |
